Laboratory results as given in patent US7638547B2, “Cis-alkoxy-substituted spirocyclic 1H-pyrrolidine-2,4-dione derivatives serving as pesticides” (Bayer CropScience AG, priority 2002, dated 2009).

Columns and labels:
[1] = tested on: greenhouse red spider mite (Tetranychus urticae); test: Tetranychus Test, OP-resistant/spray treatment (Example I); assay type: in vivo; conditions: 100 ppm active compound, bean leaf discs sprayed, OP-resistant
Procedure: Solvents: 78 parts by weight of acetone
• 1.5 parts by weight of dimethylformamide Emulsifier: 0.5 part by weight of alkylaryl polyglycol ether
After the desired period of time, the activity in % is determined.

[2] = tested on: caterpillars of the armyworm (Spodoptera frugiperda); test: Spodoptera frugiperda Test (Example H); assay type: in vivo; conditions: 100 ppm active compound, cabbage leaves dipped
Source text: (§1) Solvent: 7 parts by weight of dimethylformamide

[3] = tested on: larvae of the mustard beetle (Phaedon cochleariae); test: Phaedon Larvae Test (Example G); conditions: 100 ppm active compound, cabbage leaves dipped
[4] = tested on: cotton aphid (Aphis gossypii); test: Aphis gossypii Test (Example A); assay type: in vivo; conditions: 20 ppm active compound, cotton leaves dipped
Source text: as §1

[5] = tested on: larvae of the mustard beetle (Phaedon cochleariae); test: Phaedon Larvae Test (Example C); conditions: cabbage leaves dipped
[6] = tested on: Heliothis virescens caterpillars; test: Heliothis virescens Test (Example B); assay type: in vivo; conditions: 500 ppm active compound, soybean shoots dipped
Source text: as §1

[7] = tested on: caterpillars of the diamondback moth (Plutella xylostella/resistant strain); test: Plutella Test, resistant strain (Example D); assay type: in vivo; conditions: 4 ppm active compound, cabbage leaves dipped
Source text: as §1

[8] = tested on: peach aphid (Myzus persicae); test: Myzus Test (Example F); assay type: in vivo; conditions: 4 ppm active compound, cabbage leaves dipped
Source text: as §1

[9] = tested on: greenhouse red spider mite (Tetranychus urticae); test: Tetranychus Test, OP-resistant/dip treatment (Example J); assay type: in vivo; conditions: 4 ppm active compound, bean plants dipped, OP-resistant

## CCOC1CCC2(CC1)NC(=O)C(c1cc(C)ccc1Cl)=C2OC(=O)C(C)C (stereo not drawn)
[1]
  Kill rate in % after 4^d: 70%

## CO[C@H]1CC[C@]2(CC1)NC(=O)C(c1cc(C)ccc1C)=C2O [Example I-a-1]
[2]
  Kill rate in % after 7^d: 50%
[3]
  Kill rate in % after 7^d: 100%

## CCOC(=O)OC1=C(c2cc(C)ccc2C)C(=O)N[C@]12CC[C@@H](OC)CC2 [Example I-c-1]
[4]
  Kill rate in % after 6^d: 90%
[5]; 20 ppm active compound
  Kill rate in % after 7^d: 80%
[5]; 100 ppm active compound
  Kill rate in % after 7^d: 100%

## CCOC(=O)OC1=C(c2cc(C)ccc2Br)C(=O)N[C@]12CC[C@@H](OC)CC2 [Example I-c-2]
[6]
  Kill rate in % after 6^d: 100%
[7]
  Kill rate in % after 6^d: 100%

## CCOC(=O)OC1=C(c2cc(Br)ccc2C)C(=O)N[C@]12CC[C@@H](OC)CC2 [Example I-c-4]
[8]
  Kill rate in % after 6^d: 50%
[2]
  Kill rate in % after 7^d: 20%
[9]
  Kill rate in % after 7^d: 40%
[3]
  Kill rate in % after 7^d: 25%
